Measured values reported in US9221781B2, “Synthesis of polyhydroxy chromenone compounds and their anti-tumor effects” (BEIJING SHENOGEN PHARMA GROUP LTD., priority 2012, dated 2015).

Legend:
MDA-MB-231 cells = assay: CellTiter-Glo Luminescent Cell Viability Assay on ER-negative breast cancer MDA-MB-231 cells in vitro; format: cell-based; conditions: Homo sapiens, 72 hours, read-out: Inhibition of viability of breast cancer cells IC50, MDA-MB-231 cells
Method: A: CellTiter-Glo® Luminescent Cell Viability Assay on ER-Negative Breast Cancer MDA-MB-231 In Vitro:
MDA-MB-231 cells were maintained at 37° C., in a 5% CO2 atmosphere in DMEM and 10% fetal calf serum. The cells were placed at a density of 6×10^3 cells per well in a 96-well plate. MDA-MB-231 cells were treated with a test compound dissolved in DMSO at the concentration of 0, 0.3 μM, 0.5 μM, 1 μM, 2 μM, 3 μM, 5 μM, 10 μM, 20 μM, 30 μM, 50 μM and 100 μM for 72 hours. Treated cells were examined under CellTiter-Glo® Luminescent Cell Viability Assay Kit (Promega), and luminescence were recorded with Envision.

K562 cells = assay: Viability of chronic leukemia cells K562 by CellTiter-Glo Luminescent Assay in vitro; format: cell-based, human; conditions: Homo sapiens, 72 hours, read-out: Inhibition of viability of cells in vitro IC50, K562 cells
Method: A: Detection of Viability of Chronic Leukemia Cells K562 by CellTiter-Glo® Luminescent Assay In Vitro
The chronic leukemia cells K562 from ATCC were maintained in IMDM and 10% fetal calf serum at 37° C. in a 5% CO2 atmosphere. The cells were subseeded in a 96-well culture plate at a cencentration of 6×10^3 cells/well.K562 cells were treated with a test compound dissolved in DMSO at the concentration of 0, 0.3 μM, 0.5 μM, 1 μM, 2 μM, 3 μM, 5 μM, 10 μM, 20 μM, 30 μM, 50 μM and 100 μM for 72 hours. Treated cells were examined by CellTiter-Glo® Luminescent Cell Viability Assay Kit (Promega), and luminescence were recorded with Envision.

HL-60 cells = assay: Inhibition of growth of acute myeloblastic leukemia HL-60 cells by MTT method; format: cell-based, human; conditions: Homo sapiens, 10^−6M, 72 hours, read-out: The inhibition percentage of cell proliferation by the compounds with a concentration of 10^−6M, HL-60 cells
Method: A: Inhibition of Growth of Acute Myeloblastic Leukemia HL-60 Cells by the Compounds Detected by MTT Method
(§1) The acute myeloblastic leukemia HL-60 cells from ATCC were maintained in IMDM and 10% fetal calf serum at 37° C. in a 5% CO2 atmosphere. The cells were subseeded in a 96-well culture plate at a concentration of 6×10^3 cells/well. HL-60 cells were treated with a test compound dissolved in DMSO at the concentration of 0, 10^−4M, 10^−5M, 10^−6M, 10^−7M, 10^−8M for 72 hours. OD value was tested by MTT method, and the inhibition ratio was calculated.

Molt-4 cells = assay: Inhibition of growth of acute lymphoblastic leukemia Molt-4 cells by MTT method; format: cell-based; conditions: Homo sapiens, 10^−6M, 72 hours, read-out: The inhibition percentage of cell proliferation by the compounds with a concentration of 10^−6M, Molt-4 cells
Method: B: Inhibition of Growth of Acute Lymphoblastic Leukemia Molt-4 Cells by the Compounds Detected by MTT Method
as §1, with “lymphoblastic” for “myeloblastic”, “Molt-4” for “HL-60”, “RPMI-1640” for “IMDM”, “cells/well and maintained RPMI-1640 and 10% fetal calf serum at 37° C. 5%CO2 atmosphere. Molt-4” for “cells/well. HL-60”

lung cancer H460 cells = assay: Inhibition of lung cancer cells H460 in vitro by MTT method; format: cell-based; conditions: Homo sapiens, NCI-H460, 72 hours, FIG. 5, read-out: IC50, in vitro inhibition on cell line H460 of lung cancer
Method: A: Inhibition of Lung Cancer Cells H460 In Vitro by the Compounds by MTT Method
The lung cancer H460 cells were subseeded in a 96-well culture plate at a concentration of 4.0×10^3 cells/well and maintained in phenol red free medium containing 2.5% CS-FBS at 37° C. in a 5% CO2 atmosphere. H460 cells were treated with a test compound dissolved in DMSO at the concentration of 0, 1, 2, 4, 8, 10 and 20 μM for 72 hours. OD value was tested by MTT method, and the inhibition percentage was calculated.

[1] = tested on: human breast cancer BCAP-37 xenograft tumor; assay: Inhibition of growth of human breast cancer BCAP-37 cells xenograft tumor in nude mice; format: in vivo; conditions: BCAP-37 tumor bearing nude mice, 0.7 mg/mouse/day, 20 days of continuous administration, FIG. 9
Method: Nude mice with breast cancer xenografts were treated with the test compounds to test their effect on inhibiting tumor growth. Tumor tissues were taken from nude mice bearing BCAP-37 breast cancer and cut into small pieces. Several pieces of the tumor tissues were implanted into the armpit under the right front limb of female nude mice. After the implantation, the mice are fed with E2β solution once a day at the dosage of 7 μg per mouse for 6 days to stimulate growth of tumor in the experiment mice. Starting on the seventh day, the mice were intragastric administered with the test solution containing the compounds and corn oil at the dosage of 35 mg/kg. Tamoxifen was used as a positive control. Corn oil was used as a negative control. The test solution was prepared by dispersing test compound in corn oil solution. (20 mg/mL). […] Then the mice were sacrificed and the tumor tissues were dissected and weighed. The tumor growth inhibition rate was a percentage calculated using the formula: tumor growth inhibition rate=(average weight of the tumor in the negative control−average weight of the tumor treated with test compound)/average weight of the tumor in the negative control.

IC50 (MDA-MB-231 cells): 1070 nM
IC50 (K562 cells): 1040 nM
IC50 (lung cancer H460 cells): 1000 to 4000 nM
Structure (SMILES): CC(C)=CCc1c(O)cc(O)c2c(=O)c(O)c(-c3ccc(C(F)(F)F)cc3)oc12 [Compound 1, 2-(4-trifluoromethylphenyl)-3,5,7-trihydroxy-8-(3-methyl-2-buten-1-yl)-4H-chromen-4-one]
inhibition at 1 µM (HL-60 cells): 60.7%
inhibition at 1 µM (Molt-4 cells): 43.7%
average tumor weight, inhibition on the tumors [1]: inhibition of compound on the tumors
